Source: ChEMBL document CHEMBL1135363, “N-acyl-L-phenylalanine derivatives as potent VLA-4 antagonists that mimic a cyclic peptide conformation” (Bioorg Med Chem Lett, 2002)

How the values were obtained:
Integrin alpha-4/beta-1 [1] = target: T1, Integrin alpha-4/beta-1 (Homo sapiens, UniProt P05556+P13612); assay: Concentration required to inhibit the VCAM-Very late antigen4 (VLA4) interaction in ELISA cell-based assay; assay type: functional
Integrin alpha-4/beta-1 [2] = target: T1, Integrin alpha-4/beta-1; assay: Concentration required to inhibit the VCAM-Very late antigen4 (VLA4) interaction in Ramos cell-based assay; assay type: functional

T1 sequence (P05556 whole entry): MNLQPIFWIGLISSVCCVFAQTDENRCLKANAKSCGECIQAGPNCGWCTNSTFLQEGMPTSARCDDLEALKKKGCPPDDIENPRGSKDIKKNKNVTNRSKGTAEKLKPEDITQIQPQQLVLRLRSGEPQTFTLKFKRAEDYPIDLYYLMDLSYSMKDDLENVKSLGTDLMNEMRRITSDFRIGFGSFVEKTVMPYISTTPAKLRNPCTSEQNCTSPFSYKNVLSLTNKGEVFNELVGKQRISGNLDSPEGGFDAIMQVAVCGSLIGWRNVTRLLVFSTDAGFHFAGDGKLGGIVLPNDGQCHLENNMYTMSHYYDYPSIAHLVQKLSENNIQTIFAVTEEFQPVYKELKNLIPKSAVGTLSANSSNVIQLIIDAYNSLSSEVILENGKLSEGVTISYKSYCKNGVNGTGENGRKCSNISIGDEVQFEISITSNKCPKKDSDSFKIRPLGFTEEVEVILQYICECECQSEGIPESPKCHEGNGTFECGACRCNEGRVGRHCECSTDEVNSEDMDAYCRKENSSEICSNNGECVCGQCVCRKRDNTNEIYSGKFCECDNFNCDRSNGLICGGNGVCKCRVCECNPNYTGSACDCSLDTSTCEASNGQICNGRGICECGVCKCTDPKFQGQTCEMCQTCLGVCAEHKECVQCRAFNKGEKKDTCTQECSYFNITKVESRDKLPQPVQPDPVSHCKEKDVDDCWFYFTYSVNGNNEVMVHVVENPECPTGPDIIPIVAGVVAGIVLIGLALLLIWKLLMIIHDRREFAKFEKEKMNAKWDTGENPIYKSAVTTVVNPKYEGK
T1 sequence (P13612 whole entry): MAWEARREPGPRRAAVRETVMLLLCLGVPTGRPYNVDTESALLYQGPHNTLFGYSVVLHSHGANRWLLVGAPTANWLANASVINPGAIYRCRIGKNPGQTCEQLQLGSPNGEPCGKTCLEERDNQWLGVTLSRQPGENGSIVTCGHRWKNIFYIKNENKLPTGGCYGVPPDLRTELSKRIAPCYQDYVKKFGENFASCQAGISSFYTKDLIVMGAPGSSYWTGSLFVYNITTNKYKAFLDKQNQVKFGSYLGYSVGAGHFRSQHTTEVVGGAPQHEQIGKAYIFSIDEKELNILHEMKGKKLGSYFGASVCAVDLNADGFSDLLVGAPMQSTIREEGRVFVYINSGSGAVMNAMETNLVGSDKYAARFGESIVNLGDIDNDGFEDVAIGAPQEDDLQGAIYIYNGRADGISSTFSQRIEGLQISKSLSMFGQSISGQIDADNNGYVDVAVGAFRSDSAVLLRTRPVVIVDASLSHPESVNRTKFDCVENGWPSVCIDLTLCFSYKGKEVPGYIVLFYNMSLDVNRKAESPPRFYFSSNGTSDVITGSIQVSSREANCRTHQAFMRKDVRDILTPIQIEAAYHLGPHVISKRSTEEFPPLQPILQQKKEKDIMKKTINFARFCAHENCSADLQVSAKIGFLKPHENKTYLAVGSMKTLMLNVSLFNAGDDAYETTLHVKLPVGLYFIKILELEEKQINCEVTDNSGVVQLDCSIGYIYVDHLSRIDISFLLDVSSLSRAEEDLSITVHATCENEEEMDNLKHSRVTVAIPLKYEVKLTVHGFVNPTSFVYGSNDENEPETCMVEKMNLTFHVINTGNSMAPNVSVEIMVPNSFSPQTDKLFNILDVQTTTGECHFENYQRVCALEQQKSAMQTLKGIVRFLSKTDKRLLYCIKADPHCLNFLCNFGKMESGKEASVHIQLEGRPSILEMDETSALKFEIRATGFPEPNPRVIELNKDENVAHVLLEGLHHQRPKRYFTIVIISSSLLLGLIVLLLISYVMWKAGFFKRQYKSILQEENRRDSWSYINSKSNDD

SMILES	IC50 (Integrin alpha-4/beta-1 [1])	IC50 (Integrin alpha-4/beta-1 [2])
COc1ccc(S(=O)(=O)N2CCN(C(=O)c3ccc(C[C@H](NC(=O)[C@@H]4CCC(=O)N4Cc4ccccc4)C(=O)O)cc3)CC2)cc1	12 nM	9530 nM
O=C(O)[C@H](Cc1cccc(C(=O)N2CCN(S(=O)(=O)c3ccccc3)CC2)c1)NC(=O)[C@@H]1CCC(=O)N1Cc1ccccc1	60 nM	
O=C(Nc1ccc(C[C@H](NC(=O)[C@H]2CCC(=O)N2Cc2ccccc2)C(=O)O)cc1)c1c(Cl)cccc1Cl	0.37 nM	
CC(=O)N1CCN(C(=O)c2ccc(C[C@H](NC(=O)[C@@H]3CCC(=O)N3Cc3ccccc3)C(=O)O)cc2)CC1	7 nM	5500 nM
O=C(Nc1ccccc1)c1ccc(C[C@H](NC(=O)[C@@H]2CCC(=O)N2Cc2ccccc2)C(=O)O)cc1	57 nM	
O=C(O)[C@H](Cc1ccc(C(=O)N2CCN(C(=O)c3cccc(O)c3)CC2)cc1)NC(=O)[C@@H]1CCC(=O)N1Cc1ccccc1	3 nM	470 nM
COc1ccc(CNC(=O)c2ccc(C[C@H](NC(=O)[C@@H]3CCC(=O)N3Cc3ccccc3)C(=O)O)cc2)cc1	61 nM	
O=C(O)[C@H](Cc1cccc(C(=O)N2CCN(C(=O)c3ccccc3)CC2)c1)NC(=O)[C@@H]1CCC(=O)N1Cc1ccccc1	120 nM	
COc1ccc(C(=O)N2CCN(C(=O)c3ccc(C[C@H](NC(=O)[C@@H]4CCC(=O)N4Cc4ccccc4)C(=O)O)cc3)CC2)cc1	4 nM	320 nM
O=C(O)[C@H](Cc1ccc(C(=O)N2CCN(C(=O)c3ccccc3)CC2)cc1)NC(=O)[C@@H]1CCC(=O)N1Cc1ccccc1	3 nM	960 nM

More lines, in order of falling IC50 (Integrin alpha-4/beta-1 [1]), values ahead:

IC50 (Integrin alpha-4/beta-1 [1])	IC50 (Integrin alpha-4/beta-1 [2])	SMILES
240 nM	24400 nM	CCN(CC)C(=O)C(Cc1ccc(O)cc1)NC(=O)c1cccc(C[C@H](NC(=O)[C@@H]2CCC(=O)N2Cc2ccccc2)C(=O)O)c1 (stereo not given in full)
73 nM	7800 nM	COc1ccc(S(=O)(=O)N2CCN(C(=O)c3cccc(C[C@H](NC(=O)[C@@H]4CCC(=O)N4Cc4ccccc4)C(=O)O)c3)CC2)cc1
27 nM		C[C@H](NC(=O)c1ccc(C[C@H](NC(=O)[C@@H]2CCC(=O)N2Cc2ccccc2)C(=O)O)cc1)c1ccccc1
11 nM	2200 nM	O=C(O)[C@H](Cc1ccc(C(=O)N2CCN(S(=O)(=O)c3ccccc3)CC2)cc1)NC(=O)[C@@H]1CCC(=O)N1Cc1ccccc1
6.5 nM	2100 nM	CC(=O)N[C@@H](Cc1ccc(O)cc1)C(=O)Nc1ccc(C[C@H](NC(=O)[C@H]2CCC(=O)N2Cc2ccccc2)C(=O)O)cc1
5 nM	550 nM	CCN(CC)C(=O)C(Cc1ccc(O)cc1)NC(=O)c1ccc(C[C@H](NC(=O)[C@@H]2CCC(=O)N2Cc2ccccc2)C(=O)O)cc1 (stereo not given in full)
4 nM	940 nM	CC(=O)c1ccccc1NC(=O)c1ccc(C[C@H](NC(=O)[C@@H]2CCC(=O)N2Cc2ccccc2)C(=O)O)cc1
3 nM	1700 nM	O=C(O)[C@H](Cc1ccc(C(=O)N2CCN(C(=O)c3ccc(O)cc3)CC2)cc1)NC(=O)[C@@H]1CCC(=O)N1Cc1ccccc1
